In patent US10669272B2, “Substituted naphthyridinone compounds useful as T cell activators” (BRISTOL-MYERS SQUIBB COMPANY, priority 2018, dated 2020):
Like-named read-outs stand apart in the source and are kept apart here.

What was measured:
human DGKα = target: T1, human DGKα (Homo sapiens, UniProt P23743); test: DGKα LIPGLO assay (extruded liposome substrate), in vitro DGK inhibition; assay type: biochemical; conditions: liposome (LIPGLO) assay; read-out: DGKa LIPGLO IC50
T1 construct: TVMV protease cleavage site (C); Hexa-His (C); made in house; host or cells: Sf9 insect cells (baculovirus, Bac-to-Bac)

human DGKζ = target: T2, human DGKζ (Homo sapiens, UniProt Q13574); test: DGKζ LIPGLO assay (extruded liposome substrate), in vitro DGK inhibition; assay type: biochemical; conditions: liposome (LIPGLO) assay; read-out: DGKz LIPGLO IC50
T2 construct: TVMV protease cleavage site (C); Hexa-His (C); made in house; host or cells: Sf9 insect cells (baculovirus, Bac-to-Bac)

Human venous whole blood = test: Human whole blood IFN-γ assay; assay type: cell-based; conditions: human whole blood, normalized to 3 μM reference compound with anti-CD3 plus anti-CD28 as 100% activation, read-out: INFg Whole Blood Normalized Agonist EC50;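 note: blood from healthy donors exposed to compound for 1 h before stimulation with anti-CD3 and anti-CD28 at 1 µg/mL each, IFN-γ quantified in supernatant by AlphaLISA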

T1 sequence (P23743 with tags, fused parts or gaps): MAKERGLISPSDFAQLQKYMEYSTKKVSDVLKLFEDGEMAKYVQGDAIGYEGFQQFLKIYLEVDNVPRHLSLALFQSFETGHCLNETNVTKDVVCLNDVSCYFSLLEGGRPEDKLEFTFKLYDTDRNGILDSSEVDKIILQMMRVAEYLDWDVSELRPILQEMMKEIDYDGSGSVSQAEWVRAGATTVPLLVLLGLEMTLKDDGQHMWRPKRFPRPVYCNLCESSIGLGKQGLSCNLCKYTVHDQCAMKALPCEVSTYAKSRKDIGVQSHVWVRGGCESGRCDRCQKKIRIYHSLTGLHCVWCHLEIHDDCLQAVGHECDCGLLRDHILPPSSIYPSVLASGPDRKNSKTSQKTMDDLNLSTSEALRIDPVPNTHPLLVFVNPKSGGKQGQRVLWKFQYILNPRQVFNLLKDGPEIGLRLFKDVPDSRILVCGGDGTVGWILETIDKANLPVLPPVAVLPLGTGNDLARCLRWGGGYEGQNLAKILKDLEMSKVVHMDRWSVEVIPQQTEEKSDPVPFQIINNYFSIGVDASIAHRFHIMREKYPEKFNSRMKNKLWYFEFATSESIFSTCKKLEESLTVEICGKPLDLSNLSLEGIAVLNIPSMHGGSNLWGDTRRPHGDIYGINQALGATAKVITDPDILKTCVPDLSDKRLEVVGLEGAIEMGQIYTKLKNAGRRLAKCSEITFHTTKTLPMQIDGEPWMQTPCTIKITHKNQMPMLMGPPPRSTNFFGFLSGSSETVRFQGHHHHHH
T2 sequence (Q13574 with tags, fused parts or gaps isoform Q13574-4): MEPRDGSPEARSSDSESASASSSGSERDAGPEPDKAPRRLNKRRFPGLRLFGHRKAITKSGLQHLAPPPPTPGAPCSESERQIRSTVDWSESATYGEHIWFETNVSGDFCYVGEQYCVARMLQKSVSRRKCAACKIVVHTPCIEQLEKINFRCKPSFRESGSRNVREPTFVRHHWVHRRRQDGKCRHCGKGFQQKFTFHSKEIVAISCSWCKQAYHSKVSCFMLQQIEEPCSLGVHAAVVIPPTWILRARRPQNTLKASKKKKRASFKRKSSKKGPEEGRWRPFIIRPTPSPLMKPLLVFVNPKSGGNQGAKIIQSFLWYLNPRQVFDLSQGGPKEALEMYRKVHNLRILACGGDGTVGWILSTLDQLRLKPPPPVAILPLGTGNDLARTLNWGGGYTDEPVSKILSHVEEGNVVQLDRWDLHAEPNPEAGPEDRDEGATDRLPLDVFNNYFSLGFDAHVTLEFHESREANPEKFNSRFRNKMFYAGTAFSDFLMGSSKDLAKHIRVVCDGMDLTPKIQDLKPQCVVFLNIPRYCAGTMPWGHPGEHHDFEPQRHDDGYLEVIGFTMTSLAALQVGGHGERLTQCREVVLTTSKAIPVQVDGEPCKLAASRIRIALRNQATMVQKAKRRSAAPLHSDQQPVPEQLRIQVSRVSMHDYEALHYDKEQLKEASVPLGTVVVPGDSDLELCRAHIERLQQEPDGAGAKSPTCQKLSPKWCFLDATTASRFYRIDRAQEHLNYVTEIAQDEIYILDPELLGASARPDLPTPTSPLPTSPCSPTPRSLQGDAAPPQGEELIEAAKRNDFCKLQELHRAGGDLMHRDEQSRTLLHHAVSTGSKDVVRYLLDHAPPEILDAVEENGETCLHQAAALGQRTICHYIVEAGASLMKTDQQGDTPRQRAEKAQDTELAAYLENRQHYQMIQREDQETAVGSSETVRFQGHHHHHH

SMILES | IC50 (human DGKα) [µM] | IC50 (human DGKζ) [µM] | EC50 (Human venous whole blood) [µM] | EC50 (Human venous whole blood; Homo sapiens, 24 h) [µM]
CC(c1cc(C2CC2)on1)N1C[C@H](C)N(c2cc(=O)n(C)c3ccc(C#N)nc23)C[C@H]1C (single isomer, unassigned) [Example 1282] | 1.4 | 2.1 | 5.2 | –
CC(c1cc(C(C)(C)C)on1)N1C[C@H](C)N(c2cc(=O)n(C)c3ccc(C#N)nc23)C[C@H]1C (single isomer, unassigned) [Example 1283] | 4.1 | 7.6 | – | 4
C[C@@H]1CN(c2cc(=O)n(C)c3ccc(C#N)nc23)[C@@H](C)CN1C(c1ccc(Cl)cc1)c1nc(C2CC2)no1 (single isomer, unassigned) [Example 1285] | 0.026 | 0.017 | 0.092 | –
C[C@@H]1CN(c2cc(=O)n(C)c3ccc(C#N)nc23)[C@@H](C)CN1C(c1ccc(Cl)cc1)c1nc(C2CC2)no1 (single isomer, unassigned) [Example 1286] | 0.038 | 0.1 | 0.27 | –
COCCOc1cc(C(C)N2C[C@H](C)N(c3cc(=O)n(C)c4ccc(C#N)nc34)C[C@H]2C)ccc1OC (single isomer, unassigned) [Example 1302] | 130 | 6.6 | – | 20
COCCOc1cc(C(C)N2C[C@H](C)N(c3cc(=O)n(C)c4ccc(C#N)nc34)C[C@H]2C)ccc1OC (single isomer, unassigned) [Example 1303] | 65 | 2.9 | – | 20
CC(c1nc(C2CC2)no1)N1C[C@H](C)N(c2c(C#N)c(=O)n(C)c3ccc(C#N)nc23)C[C@H]1C (single isomer, unassigned) [Example 1306] | 9.4 | 1.1 | – | 2.9
CC(c1nc(C2CC2)no1)N1C[C@H](C)N(c2c(C#N)c(=O)n(C)c3ccc(C#N)nc23)C[C@H]1C (single isomer, unassigned) [Example 1307] | 5.6 | 14 | – | 20
COCc1cc(F)ccc1C(C)N1C[C@H](C)N(c2cc(=O)n(C)c3ccc(C#N)nc23)C[C@H]1C (single isomer, unassigned) [Example 1314] | 10 | 0.049 | – | 0.46
COCCOc1cc(C(C)N2C[C@H](C)N(c3cc(=O)n(C)c4ccc(C#N)nc34)C[C@H]2C)ccc1C#N (single isomer, unassigned) [Example 1320] | 75 | 0.16 | – | 7
COCCOc1cc(C(C)N2C[C@H](C)N(c3cc(=O)n(C)c4ccc(C#N)nc34)C[C@H]2C)ccc1C#N (single isomer, unassigned) [Example 1321] | 7.5 | 0.31 | – | 3
CC(C)Oc1ccc(C(C)N2C[C@H](C)N(c3cc(=O)n(C)c4ccc(C#N)nc34)C[C@H]2C)cn1 (single isomer, unassigned) [Example 1324] | 12 | 0.14 | 0.69 | –
CC(C)Oc1ccc(C(C)N2C[C@H](C)N(c3cc(=O)n(C)c4ccc(C#N)nc34)C[C@H]2C)cn1 (single isomer, unassigned) [Example 1325] | 1.3 | 0.91 | 1.8 | –
CC[C@@H]1CN(c2c(F)c(=O)n(C)c3ccc(C#N)nc23)[C@@H](C)CN1C(C)c1ccc(OC(F)(F)F)cc1 (single isomer, unassigned) [Example 1328] | 4.9 | 1.5 | – | 3.4
CC[C@@H]1CN(c2c(F)c(=O)n(C)c3ccc(C#N)nc23)[C@@H](C)CN1C(C)c1ccc(OC(F)(F)F)cc1 (single isomer, unassigned) [Example 1329] | 1.5 | 26 | 3.6 | –
C[C@@H]1CN(c2cc(=O)[nH]c3ccc(C#N)nc23)[C@@H](C)CN1C(c1ccc(F)cc1)c1ccc(C#N)cc1 (single isomer, unassigned) [Example 1337] | 1.8 | 8.2 | – | 2.7
CC[C@@H]1CN(c2cc(=O)n(C)c3ccc(C#N)nc23)[C@@H](C)CN1C(c1ccc(F)cc1)c1nc(C2CC2)cs1 (single isomer, unassigned) [Example 1338] | 0.069 | 0.029 | – | 0.13
CC[C@@H]1CN(c2cc(=O)n(C)c3ccc(C#N)nc23)[C@@H](C)CN1C(c1ccc(F)cc1)c1nc(C2CC2)cs1 (single isomer, unassigned) [Example 1339] | 0.27 | 0.16 | 0.1 | –

Continued, in another order:

IC50 (human DGKα) [µM] | IC50 (human DGKζ) [µM] | SMILES | EC50 (Human venous whole blood) [µM] | EC50 (Human venous whole blood; Homo sapiens, 24 h) [µM]
8 | 4.1 | C[C@@H]1CN(c2cc(=O)n(C)c3ccc(C#N)nc23)[C@@H](C)CN1C(c1ccc(F)cc1)c1ccc(P(C)(C)=O)cc1 (single isomer, unassigned) [Example 1292] | – | 12
2.4 | 5 | CC(=O)N1CC(c2noc(C(c3ccc(F)cc3)N3C[C@H](C)N(c4cc(=O)n(C)c5ccc(C#N)nc45)C[C@H]3C)n2)C1 (single isomer, unassigned) [Example 1296] | – | 20
0.22 | 0.092 | CC(=O)N1CC(c2noc(C(c3ccc(F)cc3)N3C[C@H](C)N(c4cc(=O)n(C)c5ccc(C#N)nc45)C[C@H]3C)n2)C1 (single isomer, unassigned) [Example 1297] | – | 2.7
2.6 | 2.7 | C[C@@H]1CN(c2cc(=O)n(C)c3ccc(C#N)nc23)[C@@H](C)CN1C(c1ccc(F)cc1)c1nc(C2CN(C)C2)no1 (single isomer, unassigned) [Example 1298] | – | 13
89 | 26 | C[C@@H]1CN(c2cc(=O)n(C)c3ccc(C#N)nc23)[C@@H](C)CN1C(c1ccc(F)cc1)c1nc(C2CN(C)C2)no1 (single isomer, unassigned) [Example 1299] | 15 | –
14 | 1.8 | C[C@@H]1CN(c2cc(=O)n(C)c3ccc(C#N)nc23)[C@@H](C)CN1C(c1ccc(F)cc1)C1CCS(=O)(=O)CC1 (single isomer, unassigned) [Example 1300] | – | 7
20 | 2.2 | C[C@@H]1CN(c2cc(=O)n(C)c3ccc(C#N)nc23)[C@@H](C)CN1C(c1ccc(F)cc1)C(C)(C)O (single isomer, unassigned) [Example 1308] | 2.1 | –
4.6 | 13 | C[C@@H]1CN(c2cc(=O)n(C)c3ccc(C#N)nc23)[C@@H](C)CN1C(c1ccc(F)cc1)C(C)(C)O (single isomer, unassigned) [Example 1309] | 7.9 | –
6.2 | 7.5 | C[C@@H]1CN(c2cc(=O)n(C)c3ccc(C#N)nc23)[C@@H](C)CN1C(c1ccc(F)cc1)C(F)(F)CO (single isomer, unassigned) [Example 1310] | – | 3.6
120 | 19 | C[C@@H]1CN(c2cc(=O)n(C)c3ccc(C#N)nc23)[C@@H](C)CN1C(c1ccc(F)cc1)C(F)(F)CO (single isomer, unassigned) [Example 1311] | – | 11
0.1 | 0.15 | COCC(F)(F)C(c1ccc(F)cc1)N1C[C@H](C)N(c2cc(=O)n(C)c3ccc(C#N)nc23)C[C@H]1C (single isomer, unassigned) [Example 1312] | – | 0.33
2.2 | 5.3 | COCC(F)(F)C(c1ccc(F)cc1)N1C[C@H](C)N(c2cc(=O)n(C)c3ccc(C#N)nc23)C[C@H]1C (single isomer, unassigned) [Example 1313] | – | 4.8
79 | 1.4 | COCc1cc(F)ccc1C(C)N1C[C@H](C)N(c2cc(=O)n(C)c3ccc(C#N)nc23)C[C@H]1C (single isomer, unassigned) [Example 1315] | – | 20
1.8 | 0.018 | COCc1cc(C(C)N2C[C@H](C)N(c3cc(=O)n(C)c4ccc(C#N)nc34)C[C@H]2C)ccc1F (single isomer, unassigned) [Example 1316] | – | 4.5
8 | 0.97 | COCc1cc(C(C)N2C[C@H](C)N(c3cc(=O)n(C)c4ccc(C#N)nc34)C[C@H]2C)ccc1F (single isomer, unassigned) [Example 1317] | 2.9 | –
0.0062 | 0.034 | CSCC(c1ccc(F)cc1)N1C[C@H](C)N(c2cc(=O)n(C)c3ccc(C#N)nc23)C[C@H]1C (single isomer, unassigned) [Example 1318] | – | 0.088
1.2 | 0.47 | C[C@@H]1CN(c2cc(=O)n(C)c3ccc(C#N)nc23)[C@@H](C)CN1C(Cc1nc(C2CC2)no1)c1ccc(F)cc1 (single isomer, unassigned) [Example 1326] | 1.7 | –
0.2 | 0.29 | C[C@@H]1CN(c2cc(=O)n(C)c3ccc(C#N)nc23)[C@@H](C)CN1C(Cc1nc(C2CC2)no1)c1ccc(F)cc1 (single isomer, unassigned) [Example 1327] | 0.18 | –
0.37 | 0.16 | C[C@@H]1CN(c2cc(=O)n(C)c3ccc(C#N)nc23)[C@@H](C)CN1C(c1ccc(F)cc1)c1csc(C(F)(F)F)n1 (single isomer, unassigned) [Example 1333] | – | 0.31
0.11 | 0.14 | C[C@@H]1CN(c2cc(=O)n(C)c3ccc(C#N)nc23)[C@@H](C)CN1C(c1ccc(F)cc1)c1csc(C(F)(F)F)n1 (single isomer, unassigned) [Example 1334] | 0.26 | –
